Assay results published in patent US20030219831A1, “Split-hybrid system” (priority 2002, published 2003).

Assays:
Format in all cases: cell-based
[1] = system: interactions between RAR and IDII; assay: Two-hybrid reporter assay, VP16-RAR and Gal4N-IDII co-expressed with Gal-TK-Luc; details: 1 mM retinoid acid; VP16-RAR + Gal4N-IDII, Gal-TK-Luc; ~120 fold without compound
Description: Two fusion proteins, VP16-RAR and Gal4N-IDII, were co-expressed in a cell containing a Gal-TK-Luc reporter gene construct. Unexpectedly, interactions between RAR and IDII led to a ˜120 fold induction of the reporter gene activity. In contrast, in the presence of 1 mM retinoid acid, interactions of IDII with RAR were blocked and induction of the reporter gene activity was reduced to only ˜7 fold.

[2] = system: interactions between RAR and IDII; assay: Retinoid acid split-hybrid system, NLS-HA-Mad-RAR and Gal4N-IDII with Gal-TK-Luc; parameters: dose or concentration left out as unconfirmed; details: Gal-TK-Luc, ~7.5 fold repression without compound
Source text: (§1) Next, two fusion proteins, NLS (nuclear localization signal)-HA (hemagglutinin)-Mad-RAR and Gal4N-IDII, were co-expressed in a cell containing a Gal-TK-Luc reporter gene construct. Unexpectedly, interactions between RAR and IDII led to a ˜7.5 fold repression of the reporter gene activity.

Gal-TK-Luc = assay: Specificity control, Gal-TK-Luc by itself or with co-transfection controls; details: Gal-TK-Luc by itself or with controls Gal4N-Mad, Gal4N-IDII and NLS-HA-Mad-RAR
Source text: as §1

[3] = system: interactions of Gal4N-IDII with SMRT-RAR; assay: Split-hybrid system, SMRT-RAR and Gal4N-IDII with Gal-RSV-Luc; details: Gal-RSV-Luc, 8.5-fold repression without compound
Source text: Next, two fusion proteins, SMRT-RAR and Gal4N-IDII, were co-expressed in a cell containing a Gal-RSV-Luc reporter gene construct. Unexpectedly, interactions of Gal4N-IDII with SMRT-RAR conferred 8.5-fold repression. This repression was reversed by retinoid acid treatment.

RAR and IDI1 = assay: Split-hybrid system with RED1 reporter, RAR and IDII; details: in the presence of retinoid acid

CC1=C(/C=C/C(C)=C/C=C/C(C)=C/C(=O)O)C(C)(C)CCC1 [retinoid acid]
induction of the reporter gene activity [1]: ~7 fold
reversal of repression of the reporter gene activity [2]: completely reversed
alteration of reporter gene activity of Gal-TK-Luc (Gal-TK-Luc): did not significantly alter
reversal of repression of the reporter gene [3]: reversed
red fluorescence from RED1 reporter (RAR and IDI1): detected
